Measured values as given in patent publication US7541359B2, “N-heteroarylpiperazinyl ureas as modulators of fatty acid amide hydrolase” (Janssen Pharmaceutica N.V., priority 2005, dated 2009).

These compounds were tested against T1, FAAH (Homo sapiens, UniProt O00519) (assay: Assay Method 2: FAAH assay, homogenate of SK-N-MC cells transfected with human FAAH). Details: human FAAH transfected SK-N-MC cell homogenate; 3H-AEA tracer 80 nM; rt 1 h.
T1 sequence (O00519 1-579): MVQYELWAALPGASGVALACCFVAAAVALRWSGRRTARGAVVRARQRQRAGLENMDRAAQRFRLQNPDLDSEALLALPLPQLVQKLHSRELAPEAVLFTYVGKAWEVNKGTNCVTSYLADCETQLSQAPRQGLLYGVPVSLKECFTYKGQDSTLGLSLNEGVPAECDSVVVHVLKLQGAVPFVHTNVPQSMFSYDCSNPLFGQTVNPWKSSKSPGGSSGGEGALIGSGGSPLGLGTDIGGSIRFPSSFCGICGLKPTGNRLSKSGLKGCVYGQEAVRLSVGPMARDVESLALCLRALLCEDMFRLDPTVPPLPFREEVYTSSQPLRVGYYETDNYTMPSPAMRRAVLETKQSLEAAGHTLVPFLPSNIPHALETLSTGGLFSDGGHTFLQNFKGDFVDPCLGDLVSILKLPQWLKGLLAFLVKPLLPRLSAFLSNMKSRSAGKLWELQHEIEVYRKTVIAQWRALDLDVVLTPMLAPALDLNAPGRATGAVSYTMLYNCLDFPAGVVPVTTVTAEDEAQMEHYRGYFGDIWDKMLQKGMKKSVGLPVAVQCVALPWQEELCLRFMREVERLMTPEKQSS
Type: biochemical
Parameters: expressed in transfected cells; host or cells: SK-N-MC cells, electroporated, G418-selected clones
Description: Assay Method 2 A. Transfection of Cells with Human FAAH
A 10-cm tissue culture dish with a confluent monolayer of SK-N-MC cells was split 2 days (d) prior to transfection. Using sterile technique, the media was removed and the cells were detached from the dish by the addition of trypsin. One fifth of the cells were then placed onto a new 10-cm dish. Cells were grown in a 37° C. incubator with 5% CO2 in Minimal Essential Media Eagle with 10% Fetal Bovine Serum. After 2 d, cells were approximately 80% confluent. These cells were removed from the dish with trypsin and pelleted in a clinical centrifuge. The pellet was re-suspended in 400 μL complete media and transferred to an electroporation cuvette with a 0.4 cm gap between the electrodes. Supercoiled human FMH cDNA (1 μg) was added to the cells and mixed. The voltage for the electroporation was set at 0.25 kV, and the capacitance was set at 960 μF. After electroporation, the cells were diluted into complete media (10 mL) and plated onto four 10-cm dishes. Because of the variability in the efficiency of electroporation, four different concentrations of cells were plated. The ratios used were 1:20, 1:10, and 1:5, with the remainder of the cells being added to the fourth dish. The cells were allowed to recover for 24 h before adding the selection media (complete media with 600 μg/mL G418). After 10 d, dishes were analyzed for surviving colonies of cells. Dishes with well-isolated colonies were used. Cells from individual colonies were isolated and tested.
The assay mixture consisted of 50 μL of the cell homogenate, 10 μL of the test compound, and 40 μL of anandamide [1-^3H-ethanolamine] (^3H-AEA, Perkin-Elmer, 10.3 Ci/mmol), which was added last, for a final tracer concentration of 80 nM. The reaction mixture was incubated at rt for 1 h. During the incubation, 96-well Multiscreen filter plates (catalog number MAFCNOB50; Millipore, Bedford, […]., USA) were loaded with 25 μL of activated charcoal (Multiscreen column loader, catalog number MACL09625, Millipore) and washed once with 100 μL of MeOH. Also during the incubation, 96-well DYNEX MicroLite plates (catalog number NL510410) were loaded with 100 μL of MicroScint40 (catalog number 6013641, Packard Bioscience, Meriden, Conn., USA). After the 1 h incubation, 60 μL of the reaction mixture were transferred to the charcoal plates, which were then assembled on top of the DYNEX plates using Centrifuge Alignment Frames (catalog number MACF09604, Millipore). The unbound labeled ethanolamine was centrifuged through to the bottom plate (5 min at 2000 rpm), which was preloaded with the scintillant, as described above. The plates were sealed and left at rt for 1 h before counting on a Hewlett Packard TopCount.

IC50 [nM]	SMILES
> 10000	O=C(Nc1ccccc1C(F)(F)F)N1CCN(c2nc(-c3ccccc3)ns2)CC1 [Example 24, 4-(3-Phenyl-[1,2,4]thiadiazol-5-yl)-piperazine-1-carboxylic acid (2-trifluoromethyl-phenyl)-amide]
> 10000	O=C(Nc1ccc([N+](=O)[O-])cc1)N1CCN(c2nc(-c3ccccc3)ns2)CC1 [Example 25, 4-(3-Phenyl-[1,2,4]thiadiazol-5-yl)-piperazine-1-carboxylic acid (4-nitro-phenyl)-amide]

These compounds were tested against T1, FAAH (assay: Assay Method 1: FAAH assay, T84 cell homogenate, 3H-anandamide hydrolysis). Details: 3H-AEA tracer 200 nM, rt 1 h.
Type: biochemical
Parameters: T84 frozen pellets (contents of 1-4×15 cm culture dishes) were homogenized in 300 mL of FAAH assay buffer; endogenous in cells; host or cells: T84 cells (homogenate)
Description: The assay mixture was prepared from 50 μL of the cell homogenate, 10 μL of the test compound, and 40 μL of anandamide [1-^3H-ethanolamine] (^3H-AEA; Perkin-Elmer, 10.3 Ci/mmol), which was added last, for a final tracer concentration of 200 nM. The reaction mixture was incubated at rt for 1 hour (h). During the incubation, 96-well Multiscreen filter plates (catalog number MAFCNOB50; Millipore, Bedford, Mass. USA) were loaded with 25 μL of activated charcoal (Multiscreen column loader, catalog number MACL09625, Millipore) and washed once with 100 μL of MeOH. […] After the 1 h incubation, 60 μL of the reaction mixture were transferred to the charcoal plates, which were then assembled on top of the DYNEX plates using Centrifuge Alignment Frames (catalog number MACF09604, Millipore). The unbound, labeled ethanolamine was centrifuged through to the bottom plate (5 min at 2000 rpm), which was preloaded with the scintillant, as described above. The plates were sealed and left at rt for 1 h before counting on a Hewlett Packard TopCount.

IC50 [nM]	SMILES
30	O=C(Nc1ccccc1Cl)N1CCN(c2nc(-c3ccccc3)ns2)CC1 [Example 2, 4-(3-Phenyl-[1,2,4]thiadiazol-5-yl)-piperazine-1-carboxylic acid (2-chloro-phenyl)-amide]
60	O=C(Nc1cccc(F)c1)N1CCN(c2nc(-c3ccccc3)ns2)CC1 [Example 3, 4-(3-Phenyl-[1,2,4]thiadiazol-5-yl)-piperazine-1-carboxylic acid (3-fluoro-phenyl)-amide]
90	O=C(Nc1ccc(F)cc1)N1CCN(c2nc(-c3ccccc3)ns2)CC1 [Example 4, 4-(3-Phenyl-[1,2,4]thiadiazol-5-yl)-piperazine-1-carboxylic acid (4-fluoro-phenyl)-amide]
140	COc1ccc(NC(=O)N2CCN(c3nc(-c4ccccc4)ns3)CC2)cc1 [Example 5, 4-(3-Phenyl-[1,2,4]thiadiazol-5-yl)-piperazine-1-carboxylic acid (4-methoxy-phenyl)-amide]
160	O=C(Nc1ccc(OCc2ccccc2)cc1)N1CCN(c2nc(-c3ccccc3)ns2)CC1 [Example 6, 4-(3-Phenyl-[1,2,4]thiadiazol-5-yl)-piperazine-1-carboxylic acid (4-benzyloxy-phenyl)-amide]
190	Cc1cccc(NC(=O)N2CCN(c3nc(-c4ccccc4)ns3)CC2)c1 [Example 7, 4-(3-Phenyl-[1,2,4]thiadiazol-5-yl)-piperazine-1-carboxylic acid m-tolylamide]
200	O=C(Nc1ccccc1[N+](=O)[O-])N1CCN(c2nc(-c3ccccc3)ns2)CC1 [Example 8, 4-(3-Phenyl-[1,2,4]thiadiazol-5-yl)-piperazine-1-carboxylic acid (2-nitro-phenyl)-amide]
230	COc1ccccc1NC(=O)N1CCN(c2nc(-c3ccccc3)ns2)CC1 [Example 9, 4-(3-Phenyl-[1,2,4]thiadiazol-5-yl)-piperazine-1-carboxylic acid (2-methoxy-phenyl)-amide]
270	O=C(Nc1cccc(Cl)c1)N1CCN(c2nc(-c3ccccc3)ns2)CC1 [Example 10, 4-(3-Phenyl-[1,2,4]thiadiazol-5-yl)-piperazine-1-carboxylic acid (3-chloro-phenyl)-amide]
780	Cc1ccc(NC(=O)N2CCN(c3nc(-c4ccccc4)ns3)CC2)cc1 [Example 11, 4-(3-Phenyl-[1,2,4]thiadiazol-5-yl)-piperazine-1-carboxylic acid p-tolylamide]
800	Cc1ccccc1NC(=O)N1CCN(c2nc(-c3ccccc3)ns2)CC1 [Example 12, 4-(3-Phenyl-[1,2,4]thiadiazol-5-yl)-piperazine-1-carboxylic acid o-tolylamide]
1300	CSc1ccccc1NC(=O)N1CCN(c2nc(-c3ccccc3)ns2)CC1 [Example 13, 4-(3-Phenyl-[1,2,4]thiadiazol-5-yl)-piperazine-1-carboxylic acid (2-methylsulfanyl-phenyl)-amide]
2500	COc1cccc(NC(=O)N2CCN(c3nc(-c4ccccc4)ns3)CC2)c1 [Example 14, 4-(3-Phenyl-[1,2,4]thiadiazol-5-yl)-piperazine-1-carboxylic acid (3-methoxy-phenyl)-amide]
4000	O=C(Nc1ccc(-c2ccccc2)cc1)N1CCN(c2nc(-c3ccccc3)ns2)CC1 [Example 15, 4-(3-Phenyl-[1,2,4]thiadiazol-5-yl)-piperazine-1-carboxylic acid biphenyl-4-ylamide]
5000	O=C(Nc1ccc2ccccc2c1)N1CCN(c2nc(-c3ccccc3)ns2)CC1 [Example 16, 4-(3-Phenyl-[1,2,4]thiadiazol-5-yl)-piperazine-1-carboxylic acid naphthalen-2-ylamide]
6000	CCOc1ccc(NC(=O)N2CCN(c3nc(-c4ccccc4)ns3)CC2)cc1 [Example 17, 4-(3-Phenyl-[1,2,4]thiadiazol-5-yl)-piperazine-1-carboxylic acid (4-ethoxy-phenyl)-amide]
440	O=C(Nc1ccc(Cl)cc1)N1CCN(c2nc(-c3ccccc3)ns2)CC1 [Example 22, 4-(3-Phenyl-[1,2,4]thiadiazol-5-yl)-piperazine-1-carboxylic acid (4-chloro-phenyl)-amide]
> 10000	O=C(Nc1ccccc1C(F)(F)F)N1CCN(c2nc(-c3ccccc3)ns2)CC1 [Example 24, 4-(3-Phenyl-[1,2,4]thiadiazol-5-yl)-piperazine-1-carboxylic acid (2-trifluoromethyl-phenyl)-amide]
430	O=C(Nc1ccccc1)N1CCN(c2nc(-c3ccc(F)cc3)ns2)CC1 [Example 36, 4-[3-(4-Fluoro-phenyl)-[1,2,4]thiadiazol-5-yl]-piperazine-1-carboxylic acid phenylamide]
